Biological target: short 8-mer DNA zipper (Z1: ATGTCCAT) target interaction
Assay: nanoswitch-FRET dose response with blocking oligonucleotides
Assay type: binding
Conditions: 1 nM nanoswitches with Z1 target interaction
Excerpt: DNA nanoswitches were created as previously described (Koussa et al. 2015, Hansen et al. 2017). Briefly, circular ssDNA from the 7,249-nt bacteriophage M13 (New England BioLabs) was linearized by enzymatic cleavage of a single site using BtscI (New England BioLabs) and a site-specific oligonucleotide. This ssDNA scaffold was mixed with a molar excess of tiling 60-mer oligonucleotides (10:1), excluding the complementary regions for detection oligonucleotide and target interaction partners, and subjected to a temperature ramp from 90 to 20° C. at 1° C.−min-1. The detection oligonucleotides were added at 55° C. during the hybridization protocol. […]
The FRET from nanoswitches was quantified using a BioTek Neo plate reader. Specifically, the FRET emission was measured at 665 nm from […] and the non-FRET emission at 555 nm from […] using the built in monochromator-based system. The FRET ratio was then calculated as the ratio of the signal at 665 nm over 555 nm. For nanoswitch concentrations 2 nM and above, to reduce background, excitation at 540 nm was used instead and the FRET emission was measured at 680 nm.
FRET was measured in the presence of increasing concentrations of 7-mer (TGGACAT) or 8-mer ([…]) blocking oligonucleotides that bind to one side of the zipper. […]

Sequence	Ki (95% CI by bootstrapping (150 nM, 430 nM))	Ki (95% CI by bootstrapping (1.2 μM, 3.8 μM))
ATGGACAT [8-mer]	0.26 µM	
TGGACAT [7-mer]		2 µM
